Among the data in patent US10577357B2, “Inhibitors of LDLR-PCSK9 protein-protein interaction and methods of their use” (The Texas A&M University System, priority 2016, dated 2020) are activity values, retold here.

Structures are written as SMILES.

The target in the assay is T1, PCSK9 (Homo sapiens, UniProt Q8NBP7).
T1 construct: host or cells: exogenous PCSK9 protein added to HepG2 cells
T1 sequence (Q8NBP7 153-692): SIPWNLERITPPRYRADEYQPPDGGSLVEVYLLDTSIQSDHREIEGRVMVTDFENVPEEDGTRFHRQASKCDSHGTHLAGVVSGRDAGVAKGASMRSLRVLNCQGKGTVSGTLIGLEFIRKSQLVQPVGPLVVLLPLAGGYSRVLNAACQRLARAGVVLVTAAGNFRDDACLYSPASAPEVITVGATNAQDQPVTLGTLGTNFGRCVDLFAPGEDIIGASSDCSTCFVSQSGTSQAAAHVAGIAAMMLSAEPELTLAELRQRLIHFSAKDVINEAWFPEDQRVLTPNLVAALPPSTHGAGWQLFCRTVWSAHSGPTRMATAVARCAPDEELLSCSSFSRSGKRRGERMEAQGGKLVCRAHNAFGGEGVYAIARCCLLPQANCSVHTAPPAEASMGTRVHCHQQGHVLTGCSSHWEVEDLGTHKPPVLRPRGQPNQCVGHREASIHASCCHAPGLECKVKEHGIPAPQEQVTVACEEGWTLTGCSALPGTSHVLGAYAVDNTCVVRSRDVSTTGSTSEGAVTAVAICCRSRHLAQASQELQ
T1 sequence (Q8NBP7 31-152 partner limits assumed): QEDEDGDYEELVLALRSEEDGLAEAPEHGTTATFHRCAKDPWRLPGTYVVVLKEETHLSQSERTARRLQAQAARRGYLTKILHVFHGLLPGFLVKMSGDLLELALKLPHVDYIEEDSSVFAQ
As to the kind of experiment: LDL-uptake assay (BODIPY-LDL) in HepG2 cells with added PCSK9. Type of assay: cell-based. Conditions: inhibitors 50 μM preincubated with 10 μg/mL PCSK9 for 30 min, BODIPY-LDL 10 μg/mL, quintuplicate. As for the experimental part:
LDL-uptake assay was performed in quintuplicate following a published procedure with some modifications. HepG2 cells were seeded into 96-well plate at a density of 3×10^4 cells/well in DMEM with 10% FBS medium (Sigma-Aldrich). After a period of 24 h, the medium was aspirated and cells were washed with PBS twice. Cells were treated with 10% lipoprotein-deficient serum (Gemini) in DMEM and incubated for another 24 h. After washing cells with PBS twice, cells were incubated 2 h with either 100 μL of Pep2-8 (30 μM), inhibitors at various concentrations (50 μM), or negative control (DMSO), which were preincubated with 10 μg/mL PCSK9 in 10% lipoprotein-deficient DMEM at 0.5% DMSO level for 30 min prior. A positive control was also performed, in a similar fashion but in the absence of PCSK9. BODIPY-LDL (10 μg/mL, Invitrogen) was added to each well and cells were incubated for another 3 h. Cells were washed three times with PBS, and fluorescent intensity was measured on Synergy H4 plate reader (Biotek) with excitation and emission wavelength at 488 and 520 nm, respectively.
`CC(C)C[C@H](C(=O)N1CCN([C@@H](CC(N)=O)C(=O)N[C@@H](CCCNC(=N)N)C(=O)NCCC(=O)O)CC1)N1C(=O)N[C@@H](CC(=O)O)C1=O` [KB2274]: the activity at 50 µM is 13.5 ± 4.3%.

As for `N=C(N)NCCC[C@@H](NC(=O)[C@H](CC(=O)O)N1CCN(C(=O)[C@H](CC(N)=O)N2C(=O)N[C@@H](CCC(N)=O)C2=O)CC1)C(=O)NCCC(=O)O` [KB2275], the activity at 50 µM worked out at 8.6 ± 1.5%. The value for `CC(C)C[C@H](C(=O)N1CCN([C@@H](CC(N)=O)C(=O)N[C@@H](CCCNC(=N)N)C(=O)NC2CCOC2=O)CC1)N1C(=O)N[C@@H](CC(=O)O)C1=O` (stereo partly shown) [KB2234] was 8.7 ± 5.9%; that for `CC(C)C[C@@H](C(=O)N[C@H](CCCNC(=N)N)C(=O)NCCC(=O)O)N1CCN(C(=O)[C@H](CS)N2C(=O)N[C@H](CC(N)=O)C2=O)CC1` [KB2276] was 19 ± 4.7%.
